Test results as given in patent EP1388013B1, “COMPOSITIONS AND METHODS FOR THE USE OF FIBRONECTIN FRAGMENTS IN THE DIAGNOSIS OF CANCER” (THE REGENTS OF THE UNIVERSITY OF MICHIGAN, priority 2001, dated 2002).
“Also recorded” adds a separate entry of the source. Non-standard residues stand in square brackets, D forms with d. Residues, ends and D or L forms follow the SMILES beside them. No end group written: not given here. hCys = N[C@@H](CCS)C(=O)O

Assays:
[1] = test system: metastatic DU-145 prostate cancer cells; test: SU-ECM invasion assay, DU-145 cells; assay type: cell-based, human; conditions: for IC100: Homo sapiens, DU-145, read-out: concentration that completely (fully) inhibits the invasion of metastatic DU145 cells; for concentration that completely inhibits the invasion of metastatic DU145 cells: Example 10; for concentration that completely (fully) inhibits the invasion of metastatic DU145 cells: Example 11, Figure 7, molar basis; for inhibition of serum-induced invasion of DU-145 cells: Figure 4A; for inhibition of PHSRN-induced invasion of DU-145 cells: serum-free medium, 100 ng per ml PHSRN, Figure 4B
Description: (§1) Adult Strongylocentrotus purpuratus sea urchins were obtained from Pacific BioMarine, and their embryos were cultured to the early pluteus stage in artificial sea water at 15°C. SU-ECM were prepared from them by treatment with nonionic detergent and sterilized by dilution in the appropriate media.
(§2) […] When appropriate, purified bovine plasma fibronectin (Sigma, St. Louis, Mo), purified 120 kDa chymotryptic fragment (Gibco BRL), PHSRN or PHSCN peptides (synthesized at the Biomedical Research Core Facilities of the University of Michigan), or GRGDSP or GRGESP peptides (Gibco BRL) were added to the resuspended cells prior to placement of the cells on SU-ECM. In each well of a plate used for an invasion assay, SU-ECM were placed in 0.5 ml of the appropriate medium, and 0.5ml of the resuspended cells dropped on their exterior surfaces. Invasion assays were incubated 1 to 16 hours prior to scoring. If some circumstances, invasion assays were fixed in phosphate-buffered saline (PBS) with 2% formaldehyde for 5 minutes at room temperature, then rinsed into PBS.
(§3) Invasion assays were coded and scored blindly by microscopic examination under phase contrast at 200- and 400-fold magnification. Each cell contacting an SU-ECM was scored for its position relative to the exterior or interior surfaces. A cell was judged to have invaded if it was located on an interior surface below the focal plane passing through the upper surface of the SU-ECM, but above the focal plane passing through its lower surface. The minimum viability of the cells in each assay was always ascertained at the time of assay by determining the fraction of spread, adherent cells on the bottom of each well scored.
(§4) An invasion frequency is defined as the fraction of cells in contact with basement membranes which were located in their interiors at the time of assay. Thus, an invasion frequency of 1 denotes invasion by 100% of the cells in contact with basement membranes. Invasion frequencies were determined multiple times for each cell type assayed. For each type of cell assayed the mean and standard deviation of the invasion frequencies were calculated.
(§5) The method of Example 4 is employed, with the addition of varying concentrations of the PHSCN peptide.
(§6) Thus, the procedure in Example 4 provides a method for determining the inhibitory potential of the PHSCN peptide by comparing the number of cell invasions in the presence of the PHSCN peptide, with the number of cell invasions in the absence of the PHSCN peptide.
In this example, in vitro invasion of cancer cells into substrates is inhibited with peptides that have been chemically modified with protecting groups and peptides having protecting groups as well as the modification wherein an L-amino acid has been replaced with the D-isomer. PHSCN peptide, blocked PHSCN peptide, and blocked PHSCN peptide with a D-cysteine instead of the L-isomer, were tested (Figure 4A, 4B).
In this example, in vitro invasion of cancer cells into substrates is inhibited with non-peptide mimetics in comparison with chemically modified peptides (on a molar basis). The peptides of Example 10 (i.e. peptides chemically modified with protecting groups and peptides having protecting groups as well as the modification wherein an L-amino acid has been replaced with the D-isomer) were compared with the non-peptide mimetics DL-N-Acetylhomocysteinethiolactone, Thiobutyrolactone, and Mercaptopropionic acid, in order to investigate the structure activity relationship for invasion inhibition by interaction with the PHSRN-binding pocket of the α5β1 fibronectin receptor (Figure 7)

neonatal fibroblasts = test: SU-ECM invasion assay, neonatal fibroblasts; assay type: cell-based, human; conditions: in the presence (10% FCS) or absence of serum; molar concentration equivalent to plasma fibronectin in serum; Figure 9
Excerpt: In one example cells for the invasion assay are harvested by rinsing in Hanks' balanced salt solution, followed by brief treatment with 0.25% trypsin, 0.02% EDTA, and pelleting and resuspension in the appropriate medium with or without 5% FCS at a density of about 50,000 cells per ml. When appropriate, purified bovine plasma fibronectin (from Sigma, St. Louis, Mo), purified 120 kDa chymotryptic fragment (Gibco BRL) or PHSRN peptides (synthesized at the Biomedical Research Core Facilities of the University of Michigan) are added to the resuspended cells prior to placement of the cells on SU-ECM. In each well of a plate used for an invasion assay, SU-ECM were placed in 0.5 ml of the appropriate medium, and 0.5ml of the resuspended cells dropped on their exterior surfaces. Invasion assays were incubated 1 to 16 hours prior to assay. If some circumstances, invasion assays were fixed in phosphate-buffered saline (PBS) with 2% formaldehyde for 5 minutes at room temperature, then rinsed into PBS.
as §3, with “are” for “were”, “is” for “was”
as §4, with “membranes which are located in” for “membranes which were located in”, “Invasion frequencies are determined multiple” for “Invasion frequencies were determined multiple”
In this example, the invasiveness of neonatal fibroblasts into an SU-ECM invasion substrate is considered. Experiments were performed under serum-free conditions, or in medium with 10% fetal calf serum (FCS). Neither serum-free medium nor medium containing serum supported fibroblast invasion. However, consistent with the induction of metalloproteinase gene transcription by the 120 kDa fragment of plasma fibronectin (pFn) containing the cell-binding domain, the 120 kDa fragment induced fibroblast invasion in the presence or in the absence of serum. […]

[2] = test system: rat metastatic prostate carcinoma MatLyLu (MLL) cells; test: SU-ECM invasion assay, MatLyLu cells; assay type: cell-based; conditions: 10% FCS, Figure 5
Description: as §1
[…] When appropriate, purified bovine plasma fibronectin (Sigma, St. Louis, Mo), purified 120 kDa chymotryptic fragment (Gibco BRL), PHSRN or PHSCN peptides (synthesized at the Biomedical Research Core Facilities of the University of Michigan), or GRGDSP or GRGESP peptides (Gibco BRL) were added to the resuspended cells prior to placement of the cells on SU-ECM. […]
as §3, with “A cell was judged to have invaded if it was located on an interior surface below the focal plane passing through the upper surface of the SU-ECM, but above the focal plane passing through its lower surface.” left out
An invasion frequency is defined as the fraction of cells in contact with basement membranes which were located in their interiors at the time of assay. […] Invasion frequencies were determined multiple times for each cell type assayed. […]

[3] = test system: normal human mammary epithelial cells; test: SU-ECM invasion assay, normal mammary epithelial cells; assay type: cell-based; conditions: 10% FCS, 100 ng per ml PHSRN, Figure 3B
Description: as §1, §2, §3
as §4, with “Thus, an invasion frequency of 1 denotes invasion by 100% of the cells in contact with basement membranes.” left out, “calculated. […]” for “calculated.”

[4] = test system: metastatic SUM-52 PE breast cancer cells; test: SU-ECM invasion assay, SUM-52 PE cells; assay type: cell-based, human; conditions: for inhibition of serum-induced invasion of SUM-52 PE cells: medium with 5% serum, Figure 3A; for inhibition of PHSRN-induced invasion of SUM-52 PE cells: serum free media, 100 ng per ml PHSRN, Figure 3B
Description: as §1
Cells were harvested by rinsing in Hanks balanced salt solution, followed by brief treatment with 0.25% trypsin, 0.02% EDTA, and pelleting and resuspension in the appropriate medium with or without 5% FCS at a density of about 50,000 cells per ml. When appropriate, purified bovine plasma fibronectin (Sigma, St. Louis, Mo), purified 120 kDa chymotryptic fragment (Gibco BRL), PHSRN or PHSCN peptides (synthesized at the Biomedical Research Core Facilities of the University of Michigan), or GRGDSP or GRGESP peptides (Gibco BRL) were added to the resuspended cells prior to placement of the cells on SU-ECM. In each well of a plate used for an invasion assay, SU-ECM were placed in 0.5 ml of the appropriate medium, and 0.5ml of the resuspended cells dropped on their exterior surfaces. Invasion assays were incubated 1 to 16 hours prior to scoring. If some circumstances, invasion assays were fixed in phosphate-buffered saline (PBS) with 2% formaldehyde for 5 minutes at room temperature, then rinsed into PBS.
as §3, §4, §5, §6

[5] = test system: normal human prostate epithelial cells; test: SU-ECM invasion assay, normal prostate epithelial cells; assay type: cell-based; conditions: 10% FCS, 100 ng per ml PHSRN, Figure 4B
Description: as §1, §2, §3
as §4, with “Thus, an invasion frequency of 1 denotes invasion by 100% of the cells in contact with basement membranes.” left out, “calculated. […]” for “calculated.”

[6] = DU145 invasion inhibition, 10% serum

With `CC(=O)NC1CCSC1=O` (racemic) [DL-N-Acetylhomocysteinethiolactone] the “fold less active than blocked PHSCN” value [1, 6] was “about 10 fold”, the “fold more active than the unblocked PHSCN peptide” value [1, 6] was “about 3 fold” and the IC100 [1] was 0.6 µM.
For `CC(=O)N1CCC[C@H]1C(=O)N[C@@H](Cc1c[nH]cn1)C(=O)N[C@@H](CO)C(=O)N[C@H](CS)C(=O)N[C@@H](CC(N)=O)C(N)=O` [Ac-PHS(dC)N-NH2] (Ac-PHS[dC]N-NH2), the “invasion-inhibitory activity compared with Ac-PHSCN-NH2” value ([1]; DU145 cells, medium with 10% serum, D-isomer of cysteine substituted) was “further increases the invasion-inhibitory activity; also recorded: further increases very substantially the invasion-inhibitory activity”.
With `N=C(N)NCCC[C@H](NC(=O)CN)C(=O)NCC(=O)N[C@@H](CC(=O)O)C(=O)N[C@@H](CO)C(=O)O` [GRGDS, reference compound] the “induction of fibroblast invasion of SU-ECM” value (neonatal fibroblasts) was “no detectable activity”.
`O=C(O)CCS` [Mercaptopropionic acid] was tested, and the “times less active in invasion inhibition than thiobutyrolactone” value [1, 6] was “at least 100 times”, the “times less active than the unblocked PHSCN peptide” value [1, 6] was no less than 1500 times and the “reduction of DU145 invasion” value ([1]; at any of the concentrations tested, 10% serum) was no more than 20%.
For `NC(=O)C[C@H](NC(=O)[C@H](CCS)NC(=O)[C@H](CO)NC(=O)[C@H](Cc1c[nH]cn1)NC(=O)[C@@H]1CCCN1)C(=O)O` [PHS(hC)N] (H-PHS[hCys]N-OH), the “inhibition of serum-induced invasion of MLL cells” value ([2]; higher concentrations) was “completely inhibits invasion” and the “inhibition of serum-induced invasion of MLL cells” value ([2]; lower concentrations) was “substantially inhibits invasion”.
With `O=C1CCCS1` [Thiobutyrolactone] the “fold less active than N-acetylhomocysteinethiolactone” value [1, 6] was 50 fold, the “fold less active than blocked PHSCN” value [1, 6] was “about 500 fold” and the “times less active than the unblocked PHSCN peptide” value [1, 6] was 15 times. It also gave an IC100 [1] of 30 µM.
For Ac-PHSCN-NH2 [Ac-PHSCN-NH2], the “concentration that completely inhibits the invasion of metastatic DU145 cells” value ([1]; medium with 10% serum) was “approximately 1.3 ng/ml” and the “concentration that completely (fully) inhibits the invasion of metastatic DU145 cells” value ([1]; medium with 10% serum) was “approximately 0.06 µM”.
With PHSCN [PHSCN] the “inhibition of PHSRN-induced invasion of normal human mammary epithelial cells” value ([3]; higher concentrations) was “almost complete inhibition”, the “inhibition of PHSRN-induced invasion of normal human mammary epithelial cells” value ([3]; low concentrations) was “substantial inhibitory affect” and the “inhibition of serum-induced invasion of DU-145 cells” value ([1]; 10% serum, relatively high concentrations) was “complete inhibition”. The “inhibition of serum-induced invasion of DU-145 cells” value ([1]; 10% serum, relatively low concentrations) was “substantial inhibitory affect”, the “concentration that completely inhibits the invasion of metastatic DU145 cells” value ([1]; medium with 10% serum) was 3 ng/mL and the “concentration that completely (fully) inhibits the invasion of metastatic DU145 cells” value ([1]; medium with 10% serum) was “approximately 2 µM”. The “inhibition of PHSRN-induced invasion of DU-145 cells” value ([1]; higher concentrations) was “almost complete inhibition”, the “inhibition of PHSRN-induced invasion of DU-145 cells” value ([1]; low concentrations) was “substantial inhibitory affect” and the “inhibition of serum-induced invasion of SUM-52 PE cells” value ([4]; relatively high concentrations) was “complete inhibition”. The “inhibition of serum-induced invasion of SUM-52 PE cells” value ([4]; relatively low concentrations) was “substantial inhibitory affect”, the “inhibition of PHSRN-induced invasion of SUM-52 PE cells” value ([4]; higher concentrations) was “almost complete inhibition” and the “inhibition of PHSRN-induced invasion of SUM-52 PE cells” value ([4]; low concentrations) was “substantial inhibitory affect”. For the same compound, the “inhibition of PHSRN-induced invasion of normal human prostate epithelial cells” value ([5]; higher concentrations) was “almost complete inhibition” and the “inhibition of PHSRN-induced invasion of normal human prostate epithelial cells” value ([5]; low concentrations) was “substantial inhibitory affect”.
